Data from patent US7709482B2, “Polycyclic heteroaryl substituted triazoles useful as Axl inhibitors” (Rigel Pharmaceuticals, Inc., priority 2006, dated 2010).

The compounds below were run against T1, Axl (Homo sapiens, UniProt P30530) (assay: Phospho-Akt In-Cell Western Assay (inhibition of Axl activity after Axl-antibody cross-linking)). Settings: not given.
T1 construct: endogenous in cells; host or cells: HeLa cells
T1 sequence (P30530 26-894): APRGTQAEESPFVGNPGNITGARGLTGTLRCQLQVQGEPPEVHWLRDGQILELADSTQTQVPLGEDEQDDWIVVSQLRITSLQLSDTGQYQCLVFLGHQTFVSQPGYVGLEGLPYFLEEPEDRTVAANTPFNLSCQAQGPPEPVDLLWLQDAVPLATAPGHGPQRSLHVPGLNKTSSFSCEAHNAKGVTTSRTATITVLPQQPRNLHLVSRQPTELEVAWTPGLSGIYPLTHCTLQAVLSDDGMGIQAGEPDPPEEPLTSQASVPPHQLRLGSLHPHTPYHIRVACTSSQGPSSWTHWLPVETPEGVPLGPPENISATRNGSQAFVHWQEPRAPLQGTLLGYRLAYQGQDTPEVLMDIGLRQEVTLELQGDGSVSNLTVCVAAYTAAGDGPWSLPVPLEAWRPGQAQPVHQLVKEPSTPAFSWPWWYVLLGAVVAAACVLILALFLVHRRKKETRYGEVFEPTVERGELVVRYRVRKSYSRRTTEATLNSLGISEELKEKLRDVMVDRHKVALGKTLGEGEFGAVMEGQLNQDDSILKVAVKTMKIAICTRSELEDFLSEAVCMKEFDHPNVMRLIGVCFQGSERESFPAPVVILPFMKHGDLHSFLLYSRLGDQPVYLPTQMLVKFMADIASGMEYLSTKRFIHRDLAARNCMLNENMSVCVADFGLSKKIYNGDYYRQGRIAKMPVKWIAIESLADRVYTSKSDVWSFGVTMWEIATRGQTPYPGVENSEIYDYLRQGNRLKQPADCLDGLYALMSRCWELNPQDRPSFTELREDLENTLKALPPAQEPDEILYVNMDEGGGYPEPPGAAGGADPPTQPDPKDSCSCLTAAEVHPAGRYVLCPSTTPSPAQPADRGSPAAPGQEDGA
Assay type: cell-based
Summary of the method: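 Phospho-Akt was detected in formaldehyde-fixed cells by in-cell immunostaining with HRP chemiluminescence. Before fixation, HeLa cells kept 24 h in low-serum medium containing 500 ng/mL Axl/Fc received compound for 1 h at 37 °C, followed by 5-min Axl activation through antibody clustering.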

SMILES	IC50
Nc1nc(Nc2ccc(N3CCC(N4C(=O)Cc5ccccc54)CC3)c(F)c2)n(-c2cc3c(nn2)-c2ccccc2CCC3)n1 [Compound 157, 1-(6,7-dihydro-5H-benzo[6,7]cyclohepta[1,2-c]pyridazin-3-yl)-N^5-(3-fluoro-4-(4-(indolin-2-on-1-yl)piperidin-1-yl)phenyl)-1H-1,2,4-triazole-3,5-diamine]	> 20 µM

Same assay, conditions: Hela cells, phospho-Akt chemiluminescence normalized to relative cell number; compounds of formula (Ia), Table 1; read-out: IC50

SMILES	IC50
Nc1nc(Nc2ccc(N3CCC(CN4CCCC4)CC3)c(F)c2)nn1-c1cc2c(nn1)-c1ccccc1SCC2 [Compound 125, 1-(6,7-dihydro-5H-benzo[2,3]thiepino[4,5-c]pyridazin-3-yl)-N^3-(3-fluoro-4-(4-(pyrrolidinylmethyl)-piperidinyl)phenyl)-1H-1,2,4-triazole-3,5-diamine]	< 1 µM
CCN(CC)C1CCN(c2ccc(Nc3nc(N)n(-c4cc5c(nn4)-c4ccccc4CCC5)n3)cc2F)C1 (stereo not drawn) [Compound 32, 1-(6,7-dihydro-5H-benzo[6,7]cyclohepta[1,2-c]pyridazin-3-yl)-N^3-(3-fluoro-4-(3-(diethylamino)pyrrolidin-1-yl)phenyl)-1H-1,2,4-triazole-3,5-diamine]	< 1 µM
Nc1nc(Nc2ccc(CC3C(=O)Nc4ccc(F)cc43)cc2)nn1-c1cc2c(nn1)-c1ccccc1CCC2 (stereo not drawn) [Compound 91, 1-(6,7-dihydro-5H-benzo[6,7]cyclohepta[1,2-c]pyridazin-3-yl)-N^3-(4-((5-fluoroindolin-2-on-3-yl)methyl)phenyl)-1H-1,2,4-triazole-3,5-diamine]	> 20 µM
CCN(CC)C1CCN(c2ccc(Nc3nc(N)n(-c4ncnc5c4CCCc4ccccc4-5)n3)cc2F)CC1 [Compound 39, 1-(6,7-dihydro-5H-benzo[6,7]cyclohepta[1,2-d]pyrimidin-4-yl)-N^3-(3-fluoro-4-(4-(diethylamino)piperidin-1-yl)phenyl)-1H-1,2,4-triazole-3,5-diamine]	< 1 µM
CN1CCN(c2ccc(Nc3nc(N)n(C4=Nc5ccccc5Sc5ccccc54)n3)cc2)CC1 [Compound 50, 1-((Z)-dibenzo[b,f][1,4]thiazepin-11-yl)-N^3-(4-(N-methylpiperazin-1-yl)phenyl)-1H-1,2,4-triazole-3,5-diamine]	1 to 10 µM
CN1CCc2cc(-n3nc(Nc4ccc(N5CCN(C6CCCCC6)CC5)c(F)c4)nc3N)nnc2-c2ccccc21 [Compound 43, 1-(7-methyl-6,7-dihydro-5H-benzo[2,3]azepino[4,5-c]pyridazin-3-yl)-N^3-(3-fluoro-4-(4-cyclohexylpiperazinyl)phenyl)-1H-1,2,4-triazole-3,5-diamine]	1 to 10 µM
Nc1nc(Nc2ccc3c(c2)NC(=O)CCC3)nn1-c1cc2c(nn1)-c1ccccc1CCC2 [Compound 11, 1-(6,7-dihydro-5H-benzo[6,7]cyclohepta[1,2-c]pyridazin-3-yl)-N^3-(4,5-dihydro-1H-benzo[b]azepin-2(3H)-on-8-yl)-1H-1,2,4-triazole-3,5-diamine]	< 1 µM
Nc1nc(Nc2ccc(CN3CCC(N4CCCC4)CC3)cc2)nn1-c1cc2c(nn1)-c1ccccc1CCC2 [Compound 103, 1-(6,7-dihydro-5H-benzo[6,7]cyclohepta[1,2-c]pyridazin-3-yl)-N^3-(4-((4-pyrrolidin-1-ylpiperidinyl)methyl)phenyl)-1H-1,2,4-triazole-3,5-diamine]	< 1 µM
Nc1nc(Nc2ccc(OCCN3CCCC3)c(Cl)c2)nn1-c1cc2c(nn1)-c1ccccc1CCC2 [Compound 47, 1-(6,7-dihydro-5H-benzo[6,7]cyclohepta[1,2-c]pyridazin-3-yl)-N^3-(3-chloro-4-(2-(pyrrolidin-1-yl)ethoxy)phenyl)-1H-1,2,4-triazole-3,5-diamine]	1 to 10 µM
Nc1nc(Nc2ccc(C(=O)NCCN3CCCC3)cc2)nn1-c1cc2c(nn1)-c1ccccc1CCC2 [Compound 12, 1-(6,7-dihydro-5H-benzo[6,7]cyclohepta[1,2-c]pyridazin-3-yl)-N^3-(4-((2-pyrrolidin-1-ylethyl)aminocarbonyl)phenyl)-1H-1,2,4-triazole-3,5-diamine]	< 1 µM

Same assay, conditions: Hela cells, phospho-Akt chemiluminescence normalized to relative cell number; compounds of formula (Ib), Table 2; read-out: IC50

SMILES	IC50
Nc1nc(Nc2ccc(N3CC(N4CCCC4)C3)c(F)c2)n(-c2cc3c(nn2)-c2ccccc2CCC3)n1 [Compound 170, 1-(6,7-dihydro-5H-benzo[6,7]cyclohepta[1,2-c]pyridazin-3-yl)-N^5-(3-fluoro-4-(3-pyrrolidin-1-ylazetidinyl)phenyl)-1H-1,2,4-triazole-3,5-diamine]	1 to 10 µM
Nc1nc(Nc2ccc3c(c2)CC[C@@H](N2CCCC2)CC3)n(-c2cc3c(nn2)-c2ccccc2CCC3)n1 [Compound 249, 1-(6,7-dihydro-5H-benzo[6,7]cyclohepta[1,2-c]pyridazin-3-yl)-N^5-(7-(S)-pyrrolidin-1-yl-6,7,8,9-tetrahydro-5H-benzo[7]annulene-2-yl)-1H-1,2,4-triazole-3,5-diamine]	< 1 µM

Same assay, conditions: inhibition of Axl activity; Table 1, compounds of formula (Ia); read-out: IC50

SMILES	IC50
Nc1nc(Nc2cnc(N3CCC(CN4CCCCC4)CC3)nc2)nn1-c1cc2c(nn1)-c1ccccc1CCC2 [Compound 148, 1-(6,7-dihydro-5H-benzo[6,7]cyclohepta[1,2-c]pyridazin-3-yl)-N^3-(2-(4-(piperidin-1-ylmethyl)piperidin-1-yl)pyrimidin-5-yl)-1H-1,2,4-triazole-3,5-diamine]	1 to 10 µM
Nc1nc(Nc2ccc3c(c2)CCC(NCC2CCCO2)CC3)nn1-c1cc2c(nn1)-c1ccccc1CCC2 (stereo not drawn) [Compound 228, 1-(6,7-dihydro-5H-benzo[6,7]cyclohepta[1,2-c]pyridazin-3-yl)-N^3-(7-(tetrahydrofuran-2-ylmethyl)amino-6,7,8,9-tetrahydro-5H-benzo[7]annulene-2-yl)-1H-1,2,4-triazole-3,5-diamine]	< 1 µM
CCN(CC)CC1CCCN1c1ccc(Nc2nc(N)n(-c3cc4c(nn3)-c3ccccc3CCC4)n2)cn1 (stereo not drawn) [Compound 130, 1-(6,7-dihydro-5H-benzo[6,7]cyclohepta[1,2-c]pyridazin-3-yl)-N^3-(6-(2-diethylaminomethyl)pyrrolidin-1-ylpyridin-3-yl)-1H-1,2,4-triazole-3,5-diamine]	1 to 10 µM
Nc1nc(Nc2ccc(/C=C/CN3CCC(N4CCCC4)CC3)nc2)nn1-c1cc2c(nn1)-c1ccccc1CCC2 [Compound 141, 1-(6,7-dihydro-5H-benzo[6,7]cyclohepta[1,2-c]pyridazin-3-yl)-N^3-(6-(3-(4-(pyrrolidin-1-yl)piperidin-1-yl)-(E)-propenyl)pyridin-3-yl)-1H-1,2,4-triazole-3,5-diamine]	1 to 10 µM
Nc1nc(Nc2ccc3c(c2)CCC(NCC2CC2)CC3)nn1-c1cc2c(nn1)-c1ccccc1CCC2 (stereo not drawn) [Compound 230, 1-(6,7-dihydro-5H-benzo[6,7]cyclohepta[1,2-c]pyridazin-3-yl)-N^3-(7-(cyclopropylmethyl)amino-6,7,8,9-tetrahydro-5H-benzo[7]annulene-2-yl)-1H-1,2,4-triazole-3,5-diamine]	< 1 µM
